Data on two molecules can be found in patent US8758731B2, “Skin lightening by topical application of 1-hydroxyl 3,5-bis(4′hydroxyl styryl)benzene” (Johnson & Johnson Consumer Companies, Inc., priority 2012, dated 2014).

One assay relates to Mushroom tyrosinase. Description: Tyrosinase inhibition test (mushroom tyrosinase, L-dopa, OD 492 nm). It is filed as biochemical. Particulars: 10 mM L-dopa, 37° C., 30 min, duplicate. The method, then: Ultraviolet (UV) radiation from the sun is the most important external stimulus for melanin formation leading to skin darkening. Reducing melanin formation in the skin may be achieved by inhibiting multiple steps of the melanin biogenesis process. Tyrosinase is the key regulatory enzyme of melanogenesis. Agents that inhibit tyrosinase will reduce melanin synthesis.
1-Hydroxyl 3,5-bis(4′hydroxyl styryl)benzene (0.0001, 0.001, and 0.01% w/v) was tested for tyrosinase inhibition as follows.
Mushroom tyrosinase samples (Sigma, T7755, 10 U/reaction) were treated with the samples of 1-hydroxyl 3,5-bis(4′hydroxyl styryl)benzene and control samples. Reaction was initiated by addition of 10 mM L-dopa (Research Organics, #2111D) at 37° C. Tyrosinase activity was measured by recording light absorption (optical density) at 492 nm after 30 min for both control samples (no exposure to test compound) and test samples that were exposed to the test compound.
Percent Inhibition of Tyrosinase was related to the reduction in absorption at 492 nm (relative to the control) by the following formula: Percent Inhibition of Tyrosinase=[Tcontrol−Tsample/Tcontrol)]*100 where Tcontrol is the tyrosinase activity of the control and Tsample is the tyrosinase activity in the presence of test compound. Samples were tested in duplicate and Percent Inhibition of Tyrosinase was averaged and standard deviation was reported.

The subject of assay [1] is MelanoDerm skin epidermal equivalent tissues (NHEK and NHM). The experiment in a line: Inhibition of pigmentation in skin epidermal equivalent tissues (MatTek MelanoDerm MEL-300-B). It is filed as cell-based, human. Particulars: measured day 9, vs vehicle-treated control. The method, then:
Skin epidermal equivalent tissues obtained from MatTek's MelanoDerm™ System were used as follows. MatTek's MelanoDerm™ System consists of normal, human-derived epidermal keratinocytes (NHEK) and melanocytes (NHM) which have been cultured to form a multilayered, highly differentiated model of the human epidermis. Specifically, MEL-300-B tissues, each 9 mm in diameter were used in the following tests.
1-Hydroxyl 3,5-bis(4′hydroxyl styryl)benzene and its piperazine salt were prepared in an appropriate vehicle and applied topically to the skin model daily. The experiment lasted for eight days. Measurement was taken on day 9.
The Degree of Lightness for each skin model tissue (L-Value) was measured using a spectrophotometer (Konica Minolta CM-2600d). The ΔL (degree of lightness as compared to vehicle-treated control) for each test sample was calculated using following formula: ΔL=L-value of treated sample−L-value of control sample

For assay [2], the system named is murine melanoma B16(F10) cells. Description: Inhibition of UV-induced Melanogenesis test. It is filed as cell-based. Particulars: for Percent inhibition of UV-induced melanogenesis (mean ± SD): B16(F10), UVB 200 mJ/cm^2, 24 h post UVB. As to the method: One or more samples of B16(F10) cells were prepared and each pre-treated with a test sample followed by UVB exposure as described below. Upon treatment, UVB stimulated melanogenesis in the cells and test compounds were evaluated based on their ability to inhibit or slow down the rate of melanogenesis. The cells were lysed for protein measurement at 595 nm and melanin content at 470 nm. The potency of the test compounds were determined by comparing the % inhibition achieved by the test compounds against the treated control.
On a first day, murine melanoma B16(F10) cells were seeded in 60 mm plates with a density of ˜1 million cells per plate and incubated for […] at 37° C., 5% CO2. On day 2, the cells with a confluency rate of 90-100% were treated with test compound at a predetermined concentration (e.g. 25 mg/mL) for two hours (for test compound samples only) followed by exposure to UVB 200 mJ/cm^2 (for test samples and treated control). The cells were harvested on day 3 (24 h post UVB irradiation for test samples and treated control) and lysed in protein lysis buffer (50 mM Tris, pH 8, 2 mM EDTA, 150 mM NaCl, and 1% TRITON X 100—a nonionic surfactant purchased from BioRad Cat.#: 161-0407), and centrifuged.
The resulting supernatant was mixed well with a protein dye assay (Bio-rad protein assay reagent) and a spectrophotometer (Molecular Devices VERSAmax) was used to determine the optical density (OD) of the sample at 595 nm, which was recorded as the “protein assay OD.” The cell pellet remaining after removal of the supernatant was dissolved in alkaline DMSO buffer, and the resulting solution was similarly tested using a spectrophotometer for melanin absorbance assay at 470 nm. The absorbance was recorded as the “melanin assay OD.”
Control samples of B16(F10) murine melanoma cells were prepared and harvested as indicated above, but without addition of any test sample and without exposure to UVB (untreated control). Other samples were prepared and harvested as indicated above, but without addition of test sample and exposed to UVB as described below (treated control).
Three samples each of the untreated control, treated control, and each test sample were made and the Melanin OD and Protein OD measured for each. The normalized melanin for each untreated control (3 samples), treated control (3 samples) and test sample (3 samples for each test compound) was calculated via the following equation: Normalized Melanin=melanin assay OD/protein assay OD. The averages of the Normalized Melanin of the untreated controls and treated controls were calculated (sum of the three calculated values/3).
The Induction value of the Control (which can be thought of as the UV-induced increase in melanin, without the benefit of any test sample to reduce melanogensis) was determined by subtracting the average Normalized Melanin of untreated control from the average Normalized Melanin of treated control. Similarly, the Induction value of each test sample (which can be thought of as the amount of additional melanin over and above the baseline of the sample not treated with UV) was then calculated by subtracting average Normalized Melanin of untreated control from the Normalized Melanin of the test sample. The Percent Inhibition for each test sample was then calculated via the equation: Percent Inhibition=100×[(Induction value of Control−Induction value with Test Sample)/Induction value of Control].
The average Percent Inhibition was calculated as the sum of the three resulting Inhibition % values for each test sample divided by three.

For assay [3], the system named is murine melanoma B16(F10) cells. Description: Inhibition of UV-induced Melanogenesis test. Conditions: 0.0001%; average of S1 and S2. It is filed as cell-based.
Where [4] appears, read: 0.5% topically daily for eight days.

“And” between values parts separate entries of the source, which are not always exact repeats. Identical values can stand only once.

As to `Oc1ccc(/C=C/c2cc(O)cc(/C=C/c3ccc(O)cc3)c2)cc1` [1-Hydroxyl 3,5-bis(4′hydroxylstyryl)benzene], the “Percent Inhibition of Tyrosinase activity (mean ± standard deviation)” value stood at 3.3 ± 1.95% with Mushroom tyrosinase (0.0001% w/v test compound), 8.21 ± 1.27% with Mushroom tyrosinase (0.001% w/v test compound) and 11.84 ± 3.22% in the assay with Mushroom tyrosinase (0.01% w/v test compound). Moreover, in assay [1] (setting [4]), the “Degree of Lightness (ΔL)” value amounted to 4.23 ± 0.64. In addition, the “Percent inhibition of UV-induced melanogenesis (mean ± SD)” value in assay [2] (0.00001% test compound) turned out to be 18.93 ± 5.92%; in assay [2] (0.00005% test compound), 33.27 ± 4.39%; in assay [2] (0.0001% test compound) it was 40.49 ± 2.04%. Besides, the “Induction value with Test sample” value in assay [2] (0.0001%, single test samples S1, S2, Normalized Melanin minus untreated control 0.122, listed as 1-hydroxyl 3,5-bis(4′hydroxyl styryl)benzene—Free Phenol) is 0.19 − 0.122 = 0.068 and 0.187 − 0.122 = 0.065. Also, the “Normalized Melanin value (melanin assay OD/protein assay OD)” value in assay [2] (0.0001%, single test samples S1, S2, listed as 1-hydroxyl 3,5-bis(4′hydroxyl styryl)benzene—Free Phenol) is 0.19 (S1) and 0.187 (S2). Further, the “Percent Inhibition for Test sample (Ave)” value in assay [3] is listed as “Ave = (39.05 + 41.93)/2 = 40.49%”.
As for “1-hydroxyl 3,5-bis(4′hydroxyl styryl)benzene - Piperazine salt”, the “Percent Inhibition of Tyrosinase activity (mean ± standard deviation)” value is 2.03 ± 3.94% in the assay with Mushroom tyrosinase (0.0001% w/v test compound), 11.52 ± 3.16% in the assay on Mushroom tyrosinase (0.001% w/v test compound) and 16.64 ± 2.76% in the assay on Mushroom tyrosinase (0.01% w/v test compound). The “Degree of Lightness (ΔL)” value in assay [1] (0.1% topically daily for eight days) was 1.46 ± 0.71; in assay [1] (0.25% topically daily for eight days) it was 2.83 ± 0.41; in assay [1] (setting [4]), 4.60 ± 0.61. In addition, the “Percent inhibition of UV-induced melanogenesis (mean ± SD)” value in assay [2] (0.00001% test compound) is given as 13.93 ± 11.33%; in assay [2] (0.00005% test compound), 33.52 ± 1.54%; in assay [2] (0.0001% test compound) it was 55.70 ± 4.44%.
